Data reported in patent US20210121482A1, “WITHANOLIDES FOR THE TREATMENT OF CACHEXIA” (University of Louisville Research Foundation, Inc., priority 2019, published 2021).

Columns and labels:
[1] = Change in tumor-free body weight (Example 3); type: in vivo, mice; settings: tumor-bearing, 2 and 4 mg/kg, vs tumor-bearing vehicle
Excerpt: Experimental tumors were induced as described in Example 2.
No significant difference in tumor weight between the two doses of WFA was observed (p=0.65).

[2] = test system: Tn-I, AT2R and pro-inflammatory cytokines in the heart; test: qPCR of heart; type: in vivo, Mus musculus; settings: for relative transcript level of AT2R in the heart: compared to control
Procedure: Total RNA Extraction and qPCR: Isolation of total RNA from xenografted tumor samples was performed using an RNeasy® Mini Kit (Qiagen Catalog #74104) according to the manufacturer's instructions. Isolation of total RNA from skeletal muscle was performed using an RNeasy® Fibrous Tissue Mini Kit (Qiagen Catalog #74704) according to the manufacturer's instructions. First strand cDNA was synthesized using 1 μg of purified RNA and a commercially available kit (iScript™ cDNA synthesis, Bio-Rad Catalog #170-8891), Quantification of mRNA expression was performed similar to as previously described (Hindi and Kumar, 2016) using the SYBR Green dye method on a StepOnePlus™ system (Applied Biosystems) using gene-specific primers, as shown in Table 1.
Isolation and preparation of total RNA was performed as described in Example 1.

CC1=C(CO)C(=O)O[C@@H]([C@@H](C)[C@H]2CC[C@H]3[C@@H]4C[C@H]5O[C@]56[C@@H](O)C=CC(=O)[C@]6(C)[C@H]4CC[C@]23C)C1 [WFA, (4β,5β,6β,22R)-4,27-Dihydroxy-5,6:22,26-diepoxyergosta-2,24-diene-1,26-dione]
absolute change in tumor-free body weight [1]: significant preservation of body weight loss
relative transcript levels of TNFα, IL-6, MIP-2, IFNγ in the heart ([2]; tumor-bearing WFA-treated groups): significantly reduced in the WFA-treated groups
transcript levels of IFNγ in the heart ([2]; tumor-bearing WFA-treated groups, normalized to tumor-bearing vehicle): significantly reduced in the WFA-treated groups
relative transcript level of AT2R in the heart ([2]; tumor-bearing, WFA 2 mg/kg): 3.5±1.8 fold
relative transcript level of AT2R in the heart ([2]; tumor-bearing, WFA 4 mg/kg): 5.2±3.2 fold
reduction in relative transcript levels of Troponin-I (Tn-I) in heart ([2]; tumor-bearing, both doses, vs tumor-bearing vehicle): significantly blunted
